This note sets out measurements from patent US20260118350A1, “Fluorescent Probes for Peroxidase-Mediated Fluorescent Signal Amplification” (Seoul National University R&DB Foundation, priority 2024, published 2026).

For assay [1], the target named is T1, HRP (Armoracia rusticana, UniProt P00433).
T1 sequence (P00433 31-338 limits assumed): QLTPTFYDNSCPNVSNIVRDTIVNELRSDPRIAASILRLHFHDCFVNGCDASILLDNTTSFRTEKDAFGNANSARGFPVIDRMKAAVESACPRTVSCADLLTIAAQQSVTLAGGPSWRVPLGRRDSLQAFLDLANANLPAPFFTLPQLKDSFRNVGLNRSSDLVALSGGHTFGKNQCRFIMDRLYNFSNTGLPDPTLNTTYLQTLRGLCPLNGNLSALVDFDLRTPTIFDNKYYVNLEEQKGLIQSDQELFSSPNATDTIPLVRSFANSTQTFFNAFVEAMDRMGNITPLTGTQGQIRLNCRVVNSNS
The experiment in a line: Polymerization of JF catalyzed by HRP. The class given is biochemical, horseradish. The method, then:
JF (400 μM) was prepared by dissolving the powder in DMSO. To induce the polymerization of JF, 10 μM of HRP was added along with 2 mM H2O2. JF-precipitate starts forming after 30 minutes of incubation with HRP and H2O2. This reaction was carried out at room temperature for 24 h to acquire the polymerized JF. The mixture was centrifuged at 15,000 g for 10 min to separate the polymerized JF product from non-reacted JF.

In assay [2] the test system is TOM20-V5-APEX2. The experiment in a line: Live-cell APEX labeling using JF probes. It is filed as cell-based, Human. As to conditions: 5 min pre-incubation, 1 mM H2O2 1 min, TOM20-V5-APEX2-expressing cells. How it is done:
To visualize various APEX2-POIs in live cells, JF or JFA (50-100 μM) and 1 mM H2O2 were treated to APEX2-POI expressing cells during the live stage. After treatment, cells were washed thrice with DPBS and then fixed with 4% PFA in 1×DPBS for 15 minutes at room temperature. For immuno-fluorescence imaging, cells were permeabilized with −20° C. methanol for 5 minutes, followed by the standard immunofluorescence staining protocol. To detect JF or JFA fluorescence and immunofluorescence, we used the GFP channel (excitation at 488 nm), RFP channel (excitation at 561 nm), and Cy5 channel (excitation at 647 nm) of a confocal light microscope (FV3000, Olympus, Japan). HeLa cells were used for imaging experiments.
Further, the APEX reaction in live cells utilizing the JF probes in cells expressing TOM20-V5-APEX2 at the cytosolic face of the outer mitochondrial membrane (OMM) were examined. Each JF probe (JF, JFA, JFT1, JFT2, and JFT3) was pre-incubated with the cells for 5 min, followed by the addition of 1 mM H2O2 and incubation for 1 min to activate the peroxidase.

Assay [3] relates to endogenous peroxidases. The experiment in a line: Reaction with endogenous peroxidases in live cells. The class given is cell-based. As to conditions: high concentrations (≥100 μM) for 1 h in live cells. The method, then:
However, our focus was on utilizing JFT for CLEM imaging under fixed conditions. For live-cell APEX2 labeling experiments, JF or JFA (50-100 μM) was incubated with 1 mM H2O2 for 1 min. Both JF and JFA are cell-permeable and can react with APEX2 under live-cell conditions. […] We observed that a 5-min incubation of high concentrations of JFT1 ([…]) and H2O2 (0.5-1 mM) can generate selective FLEX labeling where APEX2-POIs are expressed (see Methods for details). For live-cell experiments, it would be highly advantageous to further develop JF probes with negligible activity against endogenous peroxidase in live-cell conditions while still maintaining reactivity for the APEX or HRP reaction. Since JFT was synthesized from JFA, this strategy opens up the possibility of generating further variations in JFT or other JF-based probes using various azido-click moieties. This approach could lead to the development of improved probes with enhanced performance for live-cell imaging applications.

Assay [4] relates to HeLa cells transiently expressing TMEM192-V5-APEX2. The experiment in a line: Lysosome diameter and lysosome-mitochondria contact under lysosomal stressors (JFT1 labeling by TMEM192-V5-APEX2). It is filed as cell-based, Human. As to conditions: for fold increase of lysosomal diameter vs DMSO treatment / mean lysosomal diameter: BFA 100 nM or U18666A 2 μg/ml, 18 h; for mitochondria-lysosome co-localization: HeLa cells co-expressing mito-mEosEM and TMEM192-V5-APEX2; for mean lysosomal diameter: mean (±SEM). The method, then:
Fluorescently labeled lysosome (JFT1-labeled or Lysotracker Red, RFP channel) and mitochondria (mito-mEosEM, GFP channel) area were analyzed using Fiji/ImageJ (National Institutes of Health, USA). Area corresponding to the colocalization of lysosome-mitochondria were delimited manually by thresholding keeping the same threshold for control. The colocalized area was measured for 5 cells in each group. To measure lysosome diameter, we utilized Fiji/ImageJ. Initially, the images were converted to 8-bit and the pixel measurements were calibrated using a scale bar. Circular lysosomes were then selected and a line representing the diameter of each selected lysosome was drawn, referencing the limiting membrane according to the JFT1 fluorescence signal. Subsequently, we utilized the “analyze and measure” feature of ImageJ, which generates a table with various parameters such as area and length. To convert the length from pixels to micrometers, we applied the following formula: (pixel diameter/pixels on the scale bar)×10 μm. Once the values were converted, they were plotted and statistical analysis for unpaired t-test was performed using Prism GraphPad software ([…] et al., 2021). HeLa cells transiently expressing TMEM192-V5-APEX2 were plated on coverslips (thickness no. 1.5, radius 18 mm). The cells were then treated with DMSO or U18666A (2 ug/ml), Bafilomycin A1 (100 nM) in DMEM for 18 h at 37° C. and washed three times with cold DPBS. The cells were fixed in 4% paraformaldehyde for 15 min at room temperature. Next, JFT1 labeling was done using 100 μM of the probe and 1 mM H2O2 for 5 min. Reaction was quenched and cells were permeabilized for immunofluorescence imaging with cold methanol for 5 min at -20° C., followed by washing with DPBS and blocking for 1 h with 2% bovine serum albumin in DPBS at room temperature.

Structures are written as SMILES.

As to `CC[n+]1c(/C=C/c2ccc(O)cc2)sc2ccccc21` [JF, (E)-3-ethyl-2-(4-hydroxystyryl)benzo[d]thiazol-3-ium, reference compound], the “precipitate formation upon HRP-mediated reaction” value in assay [1] (HRP and H2O2) is recorded as “macroscopic precipitate deposition”. Further, the “time at which JF-precipitate starts forming” value in assay [1] (JF 400 μM, 10 μM HRP, 2 mM H2O2, room temperature) was determined as 30 min. For the same compound, the “fluorescence staining in live cells” value in assay [2] is on record as “red fluorescence stains”. The “reactivity with endogenous peroxidases” value in assay [3] is listed as “can also react with endogenous peroxidases”.
For the compound `C#CC[n+]1c(/C=C/c2ccc(O)cc2)sc2ccccc21` [JFA, (E)-2-(4-hydroxystyryl)-3-(prop-2-yn-1-yl)benzo[d]thiazol-3-ium], the “fluorescence staining in live cells” value in assay [2] is “red fluorescence stains”. The “reactivity with endogenous peroxidases” value in assay [3] is listed as “can also react with endogenous peroxidases”.
For `CCN(CC)CCO[C@H]1CC[C@@]2(C)C(=CC[C@@H]3[C@@H]2CC[C@]2(C)C(=O)CC[C@@H]32)C1` [U18666A], in assay [4], the “fold increase of lysosomal diameter vs DMSO treatment” value is given as 2.2 fold, the mitochondria-lysosome co-localization result was “enhanced co-localization” and the mean lysosomal diameter amounted to 0.87 μm.
The matching figures for `CO/C1=C\C(C)=C\[C@@H](C)[C@@H](O)[C@@H](C)C/C(C)=C/C=C/[C@H](OC)[C@@H]([C@@H](C)[C@@H](O)[C@H](C)[C@@]2(O)C[C@@H](O)[C@H](C)[C@@H](C(C)C)O2)OC1=O` [Bafilomycin A1]: 2.7 fold, “more merged patterns” and 1.20 μm.
